Measured values reported in publication PMC2074382 (British Journal of Cancer, 1996).
Several values for one entry are separate records, joined by “and”; a condition that tells them apart may be missing. Equal entries are not always repeated. Structures can show the parent of a compound that is named as a salt.

Assay: Pharmacokinetics (lactone form, HPLC, non-compartmental) in plasma and urine, days 1 and 4 of first course
Excerpt: British Journal of Cancer (1996) 73, 744-750 O (C? 1996 Stockton Press All rights reserved 0007-0920/96 $12.00 Phase I and pharmacological study of the new topoisomerase I inhibitor G1147211, using a daily x 5 intravenous administration CJH Gerrits', GJ Creemers', JHM Schellens', P Wissel2, AS Th Planting', R Kunka2, K Selinger2, M de Boer-Dennert', Y Marijnen3, M Harteveld' and J Verweijl 'Department of Medical Oncology, Rotterdam Cancer Institute, Rotterdam, The Netherlands; 2Glaxo Wellcome Inc, Department of Clinical Pharmacology, NC, USA; 3Glaxo Wellcome Inc, Department of Clinical Research, Zeist, The Netherlands. Summary Topoisomerase I inhibitors are interesting anti-cancer agents with a novel mechanism of action. […] In subsequent patient cohorts the dose was escalated from 0.3 to 1.5 mg m-2 day-'. Pharmacokinetics analysis was performed on days 1 and 4 of the first course using a validated high- performance liquid chromatographic assay and non-compartmental methods. […] Its further development was stopped because of unpredictable and severe myelosuppression, gastrointestinal toxicity and haemorrhagic cystitis. In the late 1980s two discoveries brought about a renewal of interest in CPT; firstly, topoisomerase I was identified as the single cellular target of CPT (Hsiang et al., 1985; Hsiang and Liu, 1988) and, secondly, an overexpression of topoisomerase I was found in various tumour cell lines but not in normal tissues (Giovanella et al., 1989; Hirabayaski et al., 1992; Potmesil et al., 1988). Topoisomerase I is a nuclear enzyme that resolves topological problems of the torsionally strained (supercoiled) DNA (Slichenmyer et al., 1993). This is achieved by forming a covalent adduct between topoisome- rase I and the DNA, termed the cleavable complex. This catalytic intermediate creates single-strand DNA breaks, allowing the DNA molecule to rotate around the intact DNA strand at the cleavage site, leading to a relaxation of the DNA molecule and in this way replication, transcription and other DNA functions can proceed. These enzyme- bridged breaks are then resealed by topoisomerase I. CPT stabilises the cleavable complexes, thereby preventing resealing of single-strand DNA breaks in the presence of the drug (Covey et al., 1989; D'Arpa and Liu, 1989; Eng et al., 1988). Cytotoxicity is specific to the S-phase of the cell cycle because the double-strand breaks that occur during this phase are more difficult to repair in the presence of the drug (Horwitz and Horwitz, 1973). […] Other eligibility criteria included: (1) age>, 18 years; (2) an Eastern Cooperative Oncology Group (ECOG) performance status <2; (3) a predicted life expectancy of at least 3 months; (4) no previous anti-cancer therapy for at least 3 weeks (6 weeks for previous nitro- soureas or mitomycin C); (5) adequate haemato- poietic (WBC) 3 x 109 -', ANC > 1.5 x 109 1-' and platelets 100 x 10 1- 1), hepatic (bilirubin within normal limits, AST, ALT and/or alkaline phosphatase < 2.0 x normal), and renal (serum creatinine < 130 imol 1-') functions. All patients gave written informed consent.

[1] = 0.3 mg m-2, day 1, individual patients 1-3 in order
[2] = 0.3 mg m-2, day 1, mean of dose level
[3] = 0.3 mg m-2, day 4, individual patients 1-3 in order
[4] = 0.3 mg m-2, day 4, mean of dose level
[5] = 0.6 mg m-2, day 1, individual patients 4-6 in order
[6] = 0.6 mg m-2, day 1, mean of dose level
[7] = 0.6 mg m-2, day 4, individual patients 4-6 in order
[8] = 0.6 mg m-2, day 4, mean of dose level
[9] = 1.2 mg m-2, day 1, individual patients 7-12 in order
[10] = 1.2 mg m-2, day 1, mean of dose level

CC[C@@]1(O)C(=O)OCc2c1cc1n(c2=O)Cc2c-1nc1cc3c(cc1c2CN1CCN(C)CC1)OCCO3 [GI147211, [7 - (methylpiperazinomethylene) - 10,11 - ethylene-dioxy-20(S)] camptothecin dihydrochloride]
AUCinf [1]: 4.93 ng·h/mL and 4.04 ng·h/mL and 4.77 ng·h/mL
Clearance, total plasma clearance [1]: 1014 ml min-1 m-2 and 1238 ml min-1 m-2 and 1048 ml min-1 m-2
Cmax [1]: 3.63 ng/mL and 4.27 ng/mL and 3.73 ng/mL
MRT [1]: 2.89 h and 1.66 h and 3.33 h
Vdss [1]: 161 l m-2 and 104 l m-2 and 194 l m-2
t1/2, elimination half-life [1]: 2.96 h and 1.99 h and 2.63 h
tmax [1]: 0.42 h
AUCinf, mean [2]: 4.58 ng·h/mL
Clearance, mean [2]: 1100 ml min-1 m-2
Cmax, mean [2]: 3.88 ng/mL
MRT, mean [2]: 2.63 h
Vdss, mean [2]: 153 l m-2
t1/2, mean [2]: 2.52 h
tmax, mean [2]: 0.42 h
AUCinf [3]: 6.19 ng·h/mL and 6.79 ng·h/mL and 7.46 ng·h/mL
Clearance, total plasma clearance [3]: 808 ml min-1 m-2 and 736 ml min-1 m-2 and 670 ml min-1 m-2
Cmax [3]: 4.73 ng/mL and 4.30 ng/mL and 5.11 ng/mL
MRT [3]: 4.62 h and 4.73 h and 5.30 h
Vdss [3]: 207 l m-2 and 199 l m-2 (2×)
t1/2, elimination half-life [3]: 4.82 h and 2.34 h and 3.81 h
tmax [3]: 0.25 h (2×) and 0.42 h
AUCinf, mean [4]: 6.81 ng·h/mL
Clearance, mean [4]: 738 ml min-1 m-2
Cmax, mean [4]: 4.71 ng/mL
MRT, mean [4]: 4.88 h
Vdss, mean [4]: 202 l m-2
t1/2, mean [4]: 3.65 h
tmax, mean [4]: 0.31 h
AUCinf [5]: 10.10 ng·h/mL and 15.63 ng·h/mL and 14.00 ng·h/mL
Clearance, total plasma clearance [5]: 990 ml min-1 m-2 and 640 ml min-1 m-2 and 714 ml min-1 m-2
Cmax [5]: 9.16 ng/mL and 9.41 ng/mL and 11.46 ng/mL
MRT [5]: 4.01 h and 3.74 h and 3.52 h
Vdss [5]: 223 l m-2 and 134 l m-2 and 140 l m-2
t1/2, elimination half-life [5]: 3.35 h and 2.81 h and 2.80 h
tmax [5]: 0.42 h
AUCinf, mean [6]: 13.25 ng·h/mL
Clearance, mean [6]: 781 ml min-1 m-2
Cmax, mean [6]: 10.01 ng/mL
MRT, mean [6]: 3.76 h
Vdss, mean [6]: 166 l m-2
t1/2, mean [6]: 2.98 h
tmax, mean [6]: 0.42 h
AUCinf [7]: 11.21 ng·h/mL and 15.10 ng·h/mL and 15.94 ng·h/mL
Clearance, total plasma clearance [7]: 892 ml min-1 m-2 and 662 ml min-1 m-2
Cmax [7]: 7.60 ng/mL and 8.13 ng/mL and 9.29 ng/mL
MRT [7]: 4.89 h and 5.38 h and 6.35 h
Vdss [7]: 246 l m-2 and 203 l m-2 and 224 l m-2
t1/2, elimination half-life [7]: 3.42 h and 3.78 h and 4.15 h
tmax [7]: 0.42 h (2×) and 0.25 h
AUCinf, mean [8]: 14.08 ng·h/mL
Clearance, mean [8]: 727 ml min-1 m-2
Cmax, mean [8]: 8.34 ng/mL
MRT, mean [8]: 5.54 h
Vdss, mean [8]: 224 l m-2
t1/2, mean [8]: 3.78 h
tmax, mean [8]: 0.36 h
AUCinf [9]: 17.57 ng·h/mL and 24.95 ng·h/mL and 16.70 ng·h/mL and 15.05 ng·h/mL and 19.86 ng·h/mL and 19.42 ng·h/mL
Clearance, total plasma clearance [9]: 1138 ml min-1 m-2 and 802 ml min-1 m-2 and 1198 ml min-1 m-2 and 1329 ml min-1 m-2 and 1007 ml min-1 m-2 and 1030 ml min-1 m-2
Cmax [9]: 17.33 ng/mL and 11.97 ng/mL and 15.99 ng/mL and 12.83 ng/mL and 14.11 ng/mL and 17.65 ng/mL
MRT [9]: 3.01 h and 5.18 h and 2.94 h and 3.04 h and 3.98 h and 2.66 h
Vdss [9]: 189 l m-2 and 237 l m-2 and 193 l m-2 and 223 l m-2 and 225 l m-2 and 149 l m-2
t1/2, elimination half-life [9]: 3.62 h and 4.04 h and 2.54 h and 2.40 h and 5.10 h and 2.97 h
tmax [9]: 0.42 h (5×) and 0.25 h
AUCinf, mean [10]: 18.93 ng·h/mL
Clearance, mean [10]: 1084 ml min-1 m-2
